Test results taken from PMC8121805, “Discovery of first-in-class inhibitors of ASH1L histone methyltransferase with anti-leukemic activity” (Nature Communications, 2021).
Several values for one entry are separate records, joined by “and”; a condition that tells them apart may be missing. Equal entries are not always repeated.

Legend:
[1] = target: SET7/9 (Homo sapiens, UniProt Q8WTS6); test: HMT selectivity panel; conditions: SET7/9, 50 µM compound
Source text: (§1) Assay conditions for selectivity experiments with a panel of histone
(§2) mM DTT and 0.01% Triton X-100 was used in experiments containing core histone.

[2] = target: SMYD1 (Homo sapiens, UniProt Q8NB12); test: HMT selectivity panel; conditions: SMYD1, 50 µM compound
Source text: as §1, §2

[3] = target: PRMT4 (Homo sapiens, UniProt Q86X55); test: HMT selectivity panel; conditions: PRMT4, 50 µM compound
Source text: as §2

[4] = target: DOT1L (Homo sapiens, UniProt Q8TEK3); test: HMT selectivity panel; conditions: 50 µM compound
Protocol: as §2
experiments containing nucleosome.
G9a 5 core histone 0.05 mg/mL 1
GLP 5 core histone 0.05 mg/mL 1

[5] = target: PRMT1 (Homo sapiens, UniProt Q99873); test: HMT selectivity panel; conditions: PRMT1, 50 µM compound
Source text: as §2

[6] = target: PRMT3 (Homo sapiens, UniProt O60678); test: HMT selectivity panel; conditions: PRMT3, 50 µM compound
Source text: as §2

[7] = target: SMYD2 (Homo sapiens, UniProt Q9NRG4); test: HMT selectivity panel; conditions: SMYD2, 50 µM compound
Source text: as §1, §2

[8] = Effect on normal hematopoiesis: complete blood counts and blood parameters
Protocol: At the end point of the experiment blood samples were collected, processed and analyzed for complete blood counts (CBC) and to assess populations of myeloid (CD11b + /Gr-1 + ), B- (B220 + /CD19 + ), and T- (CD3 + ) cells using flow cytometry. […] The analysis of CBC and other blood parameters was performed by the ULAM Animal Diagnostic Laboratory using Element HT5 (HESKA).
(a) Analysis of blood cell counts in
blood cells, RBC – red blood cells, NEU – neutrophiles, LYM – lymphocytes. MONO –
monocytes, EOS – eosinophils, BAS - basophils, PLT - platelets) and other blood parameters (Hgb
– Hemoglobin, HCT- Hematocrit, MCV – Mean corpuscular volume, MCH - Mean corpuscular
hemoglobin, MCHC - Mean corpuscular hemoglobin concentration, RDW – Red cell distribution
(1 picture or pasted object on this page, not shown here)

[9] = test system: K562 cells; test: Flow cytometry of CD11B expression (differentiation); format: cell-based, human; conditions: for K562 % CD11B+ cells: 7 days
Protocol: In addition, 1 × 10^5 cells per sample were stained with Zombie Aqua™ dye (1:100 dilution) for 15 min using the Zombie Aqua™ Fixable Viability Kit (Zombie Aqua™ Fixable Viability Kit, Biolegend®) […] and then for 30 min with an anti-CD11B-PE antibody (982606, ICRF44, Biolegend®) or anti-CD11B-Pacific Blue (101224, BD BioLegend) antibody at 1:50 dilution, according to the No-wash Sequential Staining Protocol described by the manufacturer (BioLegend, Zombie Aqua Fixable Viability Kit). Cells were washed twice with 500 µL PBS containing 1% FBS and resuspended in 200 µL PBS with 1% FBS.

[10] = target: SETD2 (Homo sapiens, UniProt Q9BYW2); test: HMT selectivity panel; conditions: SETD2, 50 µM compound
Source text: as §1, §2

[11] = test system: panel of 20 histone methyltransferases; test: Panel of 20 histone methyltransferases as a whole; conditions: 50 µM
Protocol: as §2
experiments containing nucleosome.
G9a 5 core histone 0.05 mg/mL 1
GLP 5 core histone 0.05 mg/mL 1

[12] = target: NSD2 (Homo sapiens, UniProt O96028); test: HMT selectivity panel; conditions: NSD2, 50 µM compound
Source text: as §2

[13] = test system: MV4;11 cells; test: RNA-seq global gene expression; format: cell-based, human
Protocol: Total RNA was prepared from cells collected after 7 days of treatment using RNeasy Mini Kit (74106, Qiagen). 2 µg of total RNA for each sample, as quantified using Nanodrop 2000 UV-Vis spectrophotometer, was submitted to the Next-Generation Sequencing Services of the University of Michigan for RNA Sequencing on the Illumina NovaSeq (S4) Sequencer. ERCC RNA Spike-In Mix (4456740, Invitrogen™) was provided to control for variability in RNA expression.
For analysis of RNA-seq data, Fastq generation was performed using Illumina’s bcl2fastq2 software (v2.17). The cutadapt [https://cutadapt.readthedocs.org/en/stable/] and FastQC [http://www.bioinformatics.babraham.ac.uk/projects/fastqc/] tools wrapped in Trim Galore [http://www.bioinformatics.babraham.ac.uk/projects/trim_galore/] were used to trim low quality bases (Q < 20) and adapter for raw sequences. Reads with length <20 bp were removed after trimming. […] Duplicated reads for pair-end data were removed by SAMtools (v1.5)[41]. Aligned reads were assembled using Cufflinks (v2.2.1) and assembled transcriptome catalog was used as an input for Cuffdiff2[42] to determine gene expression levels (FPKM, Fragments Per Kilobase per Million mapped reads) and differential expression between conditions using default options. Genes with p < 0.05 and fold-change >2 up or down were considered as differentially expressing genes to prepare the Volcano plot, which was generated using the “ggplot2” R package. Gene set analysis was performed and enrichment plots were generated using the “fgsea” package, with the test statistic generated by Cuffdiff2 used to rank genes for gene set enrichment analysis. Fgsea was run using the C2, C5, and C6 curated datasets from MSigDB[44]. Heatmaps for the top 20 ranked genes in the Leading Edge from a given enrichment analysis were generated with the “gplots” package [https://cran.r-project.org/web/packages/gplots/index.html].

[14] = test system: MLL4; test: HMT selectivity panel; conditions: MLL4, 50 µM compound
Source text: as §2

[15] = Fig S12a, individual mice, AS-99 group
[16] = RNA-seq, MV4;11, 3 µM, seven days

Chain of SET7/9 (Q8WTS6 whole entry, species assumed): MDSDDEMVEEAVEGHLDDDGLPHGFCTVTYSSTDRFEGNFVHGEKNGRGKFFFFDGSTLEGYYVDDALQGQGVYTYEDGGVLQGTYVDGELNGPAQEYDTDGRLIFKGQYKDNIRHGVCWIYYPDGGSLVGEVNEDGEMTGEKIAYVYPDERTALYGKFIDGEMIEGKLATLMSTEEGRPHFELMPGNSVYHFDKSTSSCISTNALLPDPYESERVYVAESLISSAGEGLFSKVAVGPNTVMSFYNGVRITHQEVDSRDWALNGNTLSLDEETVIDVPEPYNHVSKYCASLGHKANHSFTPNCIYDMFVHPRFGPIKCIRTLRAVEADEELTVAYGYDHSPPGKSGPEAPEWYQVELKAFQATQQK
Chain of NSD2 (O96028 whole entry, species assumed): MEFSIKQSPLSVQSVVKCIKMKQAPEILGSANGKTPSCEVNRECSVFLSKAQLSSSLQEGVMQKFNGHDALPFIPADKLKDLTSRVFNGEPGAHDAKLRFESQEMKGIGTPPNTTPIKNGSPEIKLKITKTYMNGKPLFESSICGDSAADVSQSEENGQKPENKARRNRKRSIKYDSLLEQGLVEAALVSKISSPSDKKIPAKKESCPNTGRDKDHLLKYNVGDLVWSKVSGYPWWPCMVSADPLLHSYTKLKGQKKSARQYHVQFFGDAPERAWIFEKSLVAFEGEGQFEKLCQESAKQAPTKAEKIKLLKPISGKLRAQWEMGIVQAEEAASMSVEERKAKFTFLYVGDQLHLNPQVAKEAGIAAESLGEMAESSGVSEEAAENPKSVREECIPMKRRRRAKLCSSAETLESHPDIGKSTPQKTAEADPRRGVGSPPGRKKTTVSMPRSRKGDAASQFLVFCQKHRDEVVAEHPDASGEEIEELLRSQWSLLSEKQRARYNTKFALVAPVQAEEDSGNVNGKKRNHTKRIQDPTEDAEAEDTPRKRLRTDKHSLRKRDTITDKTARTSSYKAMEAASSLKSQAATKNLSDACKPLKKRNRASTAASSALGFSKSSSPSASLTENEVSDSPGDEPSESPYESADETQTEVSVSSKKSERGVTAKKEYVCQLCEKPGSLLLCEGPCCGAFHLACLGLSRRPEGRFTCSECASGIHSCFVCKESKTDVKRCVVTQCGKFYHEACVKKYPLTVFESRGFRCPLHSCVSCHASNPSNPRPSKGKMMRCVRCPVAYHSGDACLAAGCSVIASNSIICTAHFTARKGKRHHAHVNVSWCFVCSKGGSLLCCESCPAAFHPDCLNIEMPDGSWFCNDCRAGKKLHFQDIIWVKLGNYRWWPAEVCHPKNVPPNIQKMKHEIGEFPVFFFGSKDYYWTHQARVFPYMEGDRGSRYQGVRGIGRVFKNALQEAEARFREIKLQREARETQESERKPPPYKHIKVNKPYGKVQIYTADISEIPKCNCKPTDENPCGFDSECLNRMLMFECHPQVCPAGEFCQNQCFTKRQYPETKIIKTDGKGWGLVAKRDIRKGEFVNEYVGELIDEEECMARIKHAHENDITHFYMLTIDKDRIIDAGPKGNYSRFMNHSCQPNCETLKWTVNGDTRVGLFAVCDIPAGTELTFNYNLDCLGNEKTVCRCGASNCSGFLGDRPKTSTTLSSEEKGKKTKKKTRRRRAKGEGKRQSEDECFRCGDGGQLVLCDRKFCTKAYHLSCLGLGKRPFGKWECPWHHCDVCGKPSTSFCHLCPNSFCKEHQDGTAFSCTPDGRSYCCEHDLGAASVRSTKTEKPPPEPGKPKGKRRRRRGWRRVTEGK
Chain of SMYD1 (Q8NB12 whole entry, species assumed): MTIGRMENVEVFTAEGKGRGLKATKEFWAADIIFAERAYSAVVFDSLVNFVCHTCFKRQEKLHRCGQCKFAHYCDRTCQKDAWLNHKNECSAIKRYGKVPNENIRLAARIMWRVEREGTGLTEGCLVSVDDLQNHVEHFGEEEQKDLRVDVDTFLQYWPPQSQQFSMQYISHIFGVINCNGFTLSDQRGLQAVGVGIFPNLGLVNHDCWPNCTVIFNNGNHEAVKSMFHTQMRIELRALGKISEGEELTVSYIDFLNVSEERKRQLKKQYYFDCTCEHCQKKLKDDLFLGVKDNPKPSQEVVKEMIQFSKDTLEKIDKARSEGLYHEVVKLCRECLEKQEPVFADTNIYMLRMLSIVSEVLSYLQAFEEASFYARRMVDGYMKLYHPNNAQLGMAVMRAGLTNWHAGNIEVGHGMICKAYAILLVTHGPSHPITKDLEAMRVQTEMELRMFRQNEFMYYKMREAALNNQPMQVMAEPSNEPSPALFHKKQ
Chain of PRMT4 (Q86X55 whole entry, species assumed): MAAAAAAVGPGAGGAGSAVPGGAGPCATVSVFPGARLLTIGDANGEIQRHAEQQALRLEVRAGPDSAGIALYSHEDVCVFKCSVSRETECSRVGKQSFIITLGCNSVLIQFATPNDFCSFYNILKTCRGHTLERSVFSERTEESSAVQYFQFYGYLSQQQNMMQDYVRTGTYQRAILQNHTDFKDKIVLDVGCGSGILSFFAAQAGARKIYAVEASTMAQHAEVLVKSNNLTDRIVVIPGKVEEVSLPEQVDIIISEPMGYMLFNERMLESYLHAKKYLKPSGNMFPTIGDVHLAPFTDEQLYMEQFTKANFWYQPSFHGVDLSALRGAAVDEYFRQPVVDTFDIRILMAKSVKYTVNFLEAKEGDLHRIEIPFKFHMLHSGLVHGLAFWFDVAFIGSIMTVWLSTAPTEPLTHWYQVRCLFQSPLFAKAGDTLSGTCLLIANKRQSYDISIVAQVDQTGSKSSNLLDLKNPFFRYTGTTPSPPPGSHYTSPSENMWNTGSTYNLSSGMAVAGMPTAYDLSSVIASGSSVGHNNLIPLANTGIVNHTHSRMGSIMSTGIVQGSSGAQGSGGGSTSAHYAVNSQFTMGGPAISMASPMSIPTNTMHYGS
Chain of PRMT1 (Q99873 whole entry, species assumed): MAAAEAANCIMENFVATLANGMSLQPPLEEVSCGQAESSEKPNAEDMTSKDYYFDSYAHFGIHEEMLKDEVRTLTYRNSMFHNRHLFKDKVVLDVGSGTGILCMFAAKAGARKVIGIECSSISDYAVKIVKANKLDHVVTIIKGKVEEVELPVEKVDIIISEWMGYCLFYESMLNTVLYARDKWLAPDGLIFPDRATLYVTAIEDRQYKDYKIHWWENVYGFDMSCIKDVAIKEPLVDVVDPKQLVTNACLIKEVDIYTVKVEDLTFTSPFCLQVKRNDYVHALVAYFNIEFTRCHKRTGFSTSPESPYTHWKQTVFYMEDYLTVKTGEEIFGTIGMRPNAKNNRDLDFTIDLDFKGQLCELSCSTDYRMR
Chain of DOT1L (Q8TEK3 whole entry, species assumed): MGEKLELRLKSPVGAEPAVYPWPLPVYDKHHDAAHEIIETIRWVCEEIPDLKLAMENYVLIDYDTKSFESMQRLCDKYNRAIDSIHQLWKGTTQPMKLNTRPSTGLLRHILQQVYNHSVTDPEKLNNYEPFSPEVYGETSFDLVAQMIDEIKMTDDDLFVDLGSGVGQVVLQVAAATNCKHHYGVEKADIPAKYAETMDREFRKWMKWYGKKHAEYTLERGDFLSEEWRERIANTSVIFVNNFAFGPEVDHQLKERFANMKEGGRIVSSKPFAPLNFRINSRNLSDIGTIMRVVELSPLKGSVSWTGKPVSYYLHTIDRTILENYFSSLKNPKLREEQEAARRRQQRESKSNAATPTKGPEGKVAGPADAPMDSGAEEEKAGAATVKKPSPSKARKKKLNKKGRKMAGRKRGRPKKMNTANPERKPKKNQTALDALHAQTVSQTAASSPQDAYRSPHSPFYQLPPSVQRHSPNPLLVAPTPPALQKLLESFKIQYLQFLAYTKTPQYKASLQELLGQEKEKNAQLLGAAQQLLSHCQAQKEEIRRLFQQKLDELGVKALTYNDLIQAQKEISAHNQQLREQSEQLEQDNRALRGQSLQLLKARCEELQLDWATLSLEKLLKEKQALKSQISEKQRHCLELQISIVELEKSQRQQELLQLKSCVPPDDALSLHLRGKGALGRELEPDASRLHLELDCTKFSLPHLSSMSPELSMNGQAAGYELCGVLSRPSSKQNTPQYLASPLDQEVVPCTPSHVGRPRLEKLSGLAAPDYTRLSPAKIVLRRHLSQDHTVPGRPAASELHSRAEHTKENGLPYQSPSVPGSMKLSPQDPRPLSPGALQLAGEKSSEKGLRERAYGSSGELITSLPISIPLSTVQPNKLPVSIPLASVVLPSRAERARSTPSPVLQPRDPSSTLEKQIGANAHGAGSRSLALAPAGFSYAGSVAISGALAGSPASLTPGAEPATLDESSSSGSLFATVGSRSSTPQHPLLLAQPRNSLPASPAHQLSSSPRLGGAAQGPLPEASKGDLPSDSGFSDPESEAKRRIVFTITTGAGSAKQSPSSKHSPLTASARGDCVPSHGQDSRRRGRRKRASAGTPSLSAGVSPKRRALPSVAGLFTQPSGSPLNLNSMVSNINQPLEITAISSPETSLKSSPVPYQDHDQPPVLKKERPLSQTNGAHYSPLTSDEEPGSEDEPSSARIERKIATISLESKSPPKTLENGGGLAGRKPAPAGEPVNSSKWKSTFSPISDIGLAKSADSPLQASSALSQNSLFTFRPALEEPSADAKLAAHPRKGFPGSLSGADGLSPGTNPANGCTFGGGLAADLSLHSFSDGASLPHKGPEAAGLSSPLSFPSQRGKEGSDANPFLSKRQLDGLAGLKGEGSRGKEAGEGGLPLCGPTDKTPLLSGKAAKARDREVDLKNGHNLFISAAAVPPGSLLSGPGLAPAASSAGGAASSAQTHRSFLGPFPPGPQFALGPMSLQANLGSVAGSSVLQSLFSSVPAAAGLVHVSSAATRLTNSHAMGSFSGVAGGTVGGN

**Q.** For `CN1CC(C(=O)NCc2ccc3c(-c4cccc(C(N)=S)c4)cn(C4CCN(S(=O)(=O)C(F)(F)F)CC4)c3c2)C1` [AS-99], which activity at 50 µM [1] is on record?
**A.** The activity at 50 µM was 81.7%.

**Q.** And the “% activity” value ([1]; 50 µM)?
**A.** The value was 85.3173%.

**Q.** And the activity at 50 µM [2]?
**A.** Its activity at 50 µM is 81.1%.

**Q.** What about the “% activity” value ([2]; 50 µM) of the same compound?
**A.** Its value is 68.7304%.

**Q.** What about the activity at 50 µM [3] of the same compound?
**A.** The activity at 50 µM was 103%.

**Q.** And the “% activity” value ([3]; 50 µM)?
**A.** Its value is 110.439%.

**Q.** And the activity at 50 µM [4]?
**A.** Its activity at 50 µM is 107%.

**Q.** And the “% activity” value ([4]; 50 µM)?
**A.** Its value is 93.8212%.

**Q.** What about the activity at 50 µM [5] of the same compound?
**A.** The activity at 50 µM was 122%.

**Q.** And the “% activity” value ([5]; 50 µM)?
**A.** Its value is 110.616%.

**Q.** And the activity at 50 µM [6]?
**A.** The activity at 50 µM was 106%.

**Q.** What about the “% activity” value ([6]; 50 µM) of the same compound?
**A.** Its value is 114.852%.

**Q.** What about the “% activity” value [7] of the same compound?
**A.** Its value is 79.4042% and 102.085%.

**Q.** What about the BAS [8, 15] of the same compound?
**A.** The BAS was 0.02 x 103/uL (2×) and 0.03 x 103/uL (4×) and 0.01 x 103/uL (2×) and 0 x 103/uL.

**Q.** And the EOS [8, 15]?
**A.** Its EOS is 270 µL⁻¹ and 470 µL⁻¹ and 320 µL⁻¹ and 390 µL⁻¹ and 650 µL⁻¹ and 300 µL⁻¹ and 100 µL⁻¹ and 450 µL⁻¹ and 360 µL⁻¹.

**Q.** What about the HCT [8, 15] of the same compound?
**A.** The HCT was 41.9% and 39.7% and 28.7% and 46% and 40.3% and 29.4% and 10.7% and 42.8% and 41.4%.

**Q.** What about the HGB [8, 15] of the same compound?
**A.** The HGB was 13.7 g/dL and 13.1 g/dL and 9.8 g/dL and 15.6 g/dL and 13.9 g/dL and 10.1 g/dL and 3.6 g/dL and 14.6 g/dL and 14 g/dL.

**Q.** What about the LYM [8, 15] of the same compound?
**A.** Its LYM is 4070 µL⁻¹ and 5890 µL⁻¹ and 4140 µL⁻¹ and 5390 µL⁻¹ and 6000 µL⁻¹ and 3920 µL⁻¹ and 1230 µL⁻¹ and 6280 µL⁻¹ and 5970 µL⁻¹.

**Q.** What about the MCH [8, 15] of the same compound?
**A.** Its MCH is 14.8 Pg and 15 Pg (2×) and 15.6 Pg (3×) and 14.9 Pg and 15.4 Pg and 16.2 Pg.

**Q.** What about the MCHC [8, 15] of the same compound?
**A.** Its MCHC is 32.8 g/dL and 33.1 g/dL and 34.1 g/dL (2×) and 33.9 g/dL and 34.4 g/dL (2×) and 34 g/dL and 33.8 g/dL.

**Q.** What about the MCV [8, 15] of the same compound?
**A.** The MCV was 45.2 fL (3×) and 45.4 fL and 45.8 fL and 44 fL and 43.6 fL and 45.7 fL and 48 fL.

**Q.** What about the MONO [8, 15] of the same compound?
**A.** The MONO was 0.17 x 103/uL and 0.23 x 103/uL (2×) and 0.12 x 103/uL and 0.28 x 103/uL (2×) and 0.11 x 103/uL and 0.05 x 103/uL and 0.2 x 103/uL.

**Q.** And the MPV [8, 15]?
**A.** The MPV was 5 fL (2×) and 5.5 fL and 5.9 fL and 5.1 fL and 5.4 fL (2×) and 5.6 fL and 4.8 fL.

**Q.** And the NEU [8, 15]?
**A.** The NEU was 970 µL⁻¹ and 1680 µL⁻¹ and 1330 µL⁻¹ and 2070 µL⁻¹ and 1910 µL⁻¹ and 1210 µL⁻¹ and 630 µL⁻¹ and 1870 µL⁻¹ and 1770 µL⁻¹.

**Q.** And the PLT [8, 15]?
**A.** The PLT was 1548 K/uL and 1435 K/uL and 1241 K/uL and 1545 K/uL and 1340 K/uL and 938 K/uL and 317 K/uL and 1303 K/uL and 1383 K/uL.

**Q.** And the RBC [8, 15]?
**A.** The RBC was 9.27 M/uL and 8.74 M/uL and 6.26 M/uL and 10.46 M/uL and 9.24 M/uL and 6.5 M/uL and 2.36 M/uL and 9.37 M/uL and 8.63 M/uL.

**Q.** And the RDW [8, 15]?
**A.** Its RDW is 14.4% and 15.6% and 15.4% and 13.5% and 14.9% and 13.9% and 14.7% and 14.8% and 18.3%.

**Q.** What about the WBC [8, 15] of the same compound?
**A.** Its WBC is 5.5 k/uL and 8.3 k/uL and 5.92 k/uL and 8.1 k/uL and 8.87 k/uL and 5.55 k/uL and 2.01 k/uL and 8.91 k/uL and 8.33 k/uL.

**Q.** What about the “blood counts and other blood parameters versus vehicle” value ([8]; normal mice, 30 mg/kg, i.p., q.d., 14 days) of the same compound?
**A.** Its value is “no significant difference”.

**Q.** And the “K562 % CD11B+ cells” value ([9]; 2 uM)?
**A.** The value was 0.43% and 0.58% and 0.36%.

**Q.** And the “K562 % CD11B+ cells” value ([9]; 4 uM)?
**A.** The value was 0.34% and 0.52% and 0.4%.

**Q.** And the “K562 % CD11B+ cells” value ([9]; 6 uM)?
**A.** Its value is 0.56% and 0.39% and 0.38%.

**Q.** What about the “K562 % CD11B+ cells” value ([9]; 8 uM) of the same compound?
**A.** The value was 0.73% and 0.97% and 0.76%.

**Q.** What about the “differentiation effects in K562” value ([9]; control leukemia cell line) of the same compound?
**A.** Its value is “not observed”.

**Q.** And the activity at 50 µM [10]?
**A.** The activity at 50 µM was 101%.

**Q.** And the “% activity” value ([10]; 50 µM)?
**A.** Its value is 99.1882%.

**Q.** What about the “inhibition of the tested HMTs” value [11] of the same compound?
**A.** The value was “no significant inhibition”.

**Q.** And the activity at 50 µM [12]?
**A.** Its activity at 50 µM is 92.1%.

**Q.** And the “% activity” value ([12]; 50 µM)?
**A.** Its value is 101.756%.

**Q.** And the “GSEA: transcriptional programs driven by MLL fusion proteins and HOXA9” value ([13]; MV4;11)?
**A.** The value was “downregulation of transcriptional programs driven by MLL fusion proteins and HOXA9”.

**Q.** What about the “number of downregulated genes” value [13, 16] of the same compound?
**A.** Its value is 323.

**Q.** What about the “number of up-regulated genes” value [13, 16] of the same compound?
**A.** The value was 75.

**Q.** What about the “% activity” value [14] of the same compound?
**A.** The value was 79.3828% and 71.6922%.
